Data published in patent US6596709B1, “6-sulphanoyl-3-quinolylphosphonic acid compounds” (Les Laboratoires Servier, priority 2000, dated 2003).
Where two headings read alike, the source gives them in different places.

Assays:
[1] = Journal of Cerebral Blood Flow and Metabolism, 1994, 14, 251-261; cited from earlier work
[2] = Nephrotoxicity of prior-art compounds of EP 0 640 612 found by the Applicant; assay type: in vivo; conditions: no method given

Structure (SMILES)	Nephrotoxicity [1]	Nephrotoxicity [2]
NS(=O)(=O)c1cccc2c3c(cc([N+](=O)[O-])c12)=NC(=O)C(=O)N=3 [NBQX, 6-nitro-7-sulphamoyl-benzo[f]quinoxaline-2,3-dione]	nephrotoxicity	–
O=c1[nH]c2cc(Cl)c(Cl)cc2cc1P(=O)(O)O [(6,7-dichloro-2-oxo-1,2-dihydro-3-quinolyl)phosphonic acid]	–	serious problems of nephrotoxicity
